Results as given in US9708314B2, “Heterocyclic amide compound” (NISSAN CHEMICAL INDUSTRIES, LTD., priority 2013, dated 2017).

Legend:
Type in all cases: in vivo
[1] = system: Echinochloa oryzacola Vasing.; assay: Test Example 1: herbicidal activity, application before weed generation in submerged conditions; details: Application herbicide amount 320 g/ha; Seventeenth Table
Outline: (§1)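 Pre-emergence water-surface application under 4 cm flooding, same day as sowing, with rice transplanted at 2.5 leaf stage. Dose given as g/ha. Plants grown at 25° C. to 30° C. and rated three weeks later on a 0 (≤5%) to 5 (≥90%) herbicidal-ratio scale.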

Monochoria vaginalis = assay: as above; details: Application herbicide amount 320 g/ha; Seventeenth Table
Outline: as §1

Scirpus juncoides = assay: as above; details: Application herbicide amount 320 g/ha; Seventeenth Table
Outline: as §1

[2] = system: transplanted Oryza sativa; assay: Test Example 1: effect on crop, application before weed generation in submerged conditions; details: Application herbicide amount 320 g/ha; Seventeenth Table
Outline: as §1

Abutilon theophrasti = assay: Test Example 4: herbicidal effect by application to foliage (diluvial soil, plastic box); details: for M (Abutilon theophrasti) herbicidal effect grade: foliage application, 320 g/ha
Outline: (§2)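 Seeds sown in sterilized diluvial soil, covered ~1.5 cm, grown 14 days in greenhouse at 25° C. to 30° C. Emulsion formulation diluted in water to set rate (g/ha) and sprayed onto stems and leaves. Effect scored visually 3 weeks later on 0–5 scale (5 = ≥90% herbicidal ratio, 0 = ≤5%).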

Alopecurus myosuroides = assay: as above; details: for J (Alopecurus myosuroides) herbicidal effect grade: foliage application, 320 g/ha
Outline: as §2

Amaranthus retroflexus = assay: as above; details: for N (Amaranthus retroflexus) herbicidal effect grade: foliage application, 320 g/ha
Outline: as §2

Apera spica-venti. = assay: as above; details: for L (Apera spica-venti.) herbicidal effect grade: foliage application, 320 g/ha
Outline: as §2

Avena fatua = assay: as above; details: for I (Avena fatua) herbicidal effect grade: foliage application, 320 g/ha
Outline: as §2

Chenopodium album = assay: as above; details: for O (Chenopodium album) herbicidal effect grade: foliage application, 320 g/ha
Outline: as §2

Digitaria ciliaris = assay: as above; details: for F (Digitaria ciliaris) herbicidal effect grade: foliage application, 320 g/ha
Outline: as §2

[3] = system: Echinochloa crus-galli var. crus-galli; assay: as above; details: for H (Echinochloa crus-galli var. crus-galli) herbicidal effect grade: foliage application, 320 g/ha
Outline: as §2

Galium spurium = assay: as above; details: for Q (Galium spurium) herbicidal effect grade: foliage application, 320 g/ha
Outline: as §2

Lolium multiflorum Lam. = assay: as above; details: for K (Lolium multiflorum Lam.) herbicidal effect grade: foliage application, 320 g/ha
Outline: as §2

Setaria viridis = assay: as above; details: for G (Setaria viridis) herbicidal effect grade: foliage application, 320 g/ha
Outline: as §2

Stellaria media = assay: as above; details: for P (Stellaria media) herbicidal effect grade: foliage application, 320 g/ha
Outline: as §2

Veronica persica = assay: as above; details: for R (Veronica persica) herbicidal effect grade: foliage application, 320 g/ha
Outline: as §2

[4] = system: Beta vulgaris ssp. vulgaris; assay: Test Example 4: effect on crop by application to foliage (diluvial soil, plastic box); details: for f (Beta vulgaris ssp. vulgaris) effect on crop grade: foliage application, 320 g/ha
Outline: as §2

Brassica campestris L. = assay: as above; details: for g (Brassica campestris L.) effect on crop grade: foliage application, 320 g/ha
Outline: as §2

Glycine max = assay: as above; details: for c (Glycine max) effect on crop grade: foliage application, 320 g/ha
Outline: as §2

Triticum aestivum = assay: as above; details: for e (Triticum aestivum) effect on crop grade: foliage application, 320 g/ha
Outline: as §2

Zea mays = assay: as above; details: for b (Zea mays) effect on crop grade: foliage application, 320 g/ha
Outline: as §2

[5] = system: directly sowed Oryza sativa; assay: as above; details: for d (directly sowed Oryza sativa) effect on crop grade: foliage application, 320 g/ha
Outline: as §2

[6] = application to foliage, application herbicide amount 320 g/ha

Compound	A: Echinochloa oryzicola Vasing. (herbicidal effect grade) [1]	C: Monochoria vaginalis (herbicidal effect grade) (Monochoria vaginalis)	B: Scirpus juncoides (herbicidal effect grade) (Scirpus juncoides)	a: transplanted Oryza sativa (effect on crop grade) [2]	M (Abutilon theophrasti) herbicidal effect grade (Abutilon theophrasti)	J (Alopecurus myosuroides) herbicidal effect grade (Alopecurus myosuroides)	N (Amaranthus retroflexus) herbicidal effect grade (Amaranthus retroflexus)	L (Apera spica-venti.) herbicidal effect grade (Apera spica-venti.)	I (Avena fatua) herbicidal effect grade (Avena fatua)	O (Chenopodium album) herbicidal effect grade (Chenopodium album)	F (Digitaria ciliaris) herbicidal effect grade (Digitaria ciliaris)	H (Echinochloa crus-galli var. crus-galli) herbicidal effect grade [3]	Q (Galium spurium) herbicidal effect grade (Galium spurium)	K (Lolium multiflorum Lam.) herbicidal effect grade (Lolium multiflorum Lam.)	G (Setaria viridis) herbicidal effect grade (Setaria viridis)	P (Stellaria media) herbicidal effect grade (Stellaria media)	R (Veronica persica) herbicidal effect grade (Veronica persica)	f (Beta vulgaris ssp. vulgaris) effect on crop grade [4]	g (Brassica campestris L.) effect on crop grade (Brassica campestris L.)	c (Glycine max) effect on crop grade (Glycine max)	other results
Cn1nnnc1NC(=O)c1ccc(C(F)(F)F)n2c(C(C)(C)C)nnc12 [2-027]	5 (Herbicidal ratio of 90% or more (almost completely withered))	5 (Herbicidal ratio of 90% or more (almost completely withered))	5 (Herbicidal ratio of 90% or more (almost completely withered))	4 (Herbicidal ratio of 70% or more and less than 90%)	–	–	–	–	–	–	–	–	–	–	–	–	–	–	–	–	M: herbicidal effect on Abutilon theophrasti (Abutilon theophrasti; [6]): 5 (Herbicidal ratio of 90% or more (almost completely withered)); J: herbicidal effect on Alopecurus myosuroides (Alopecurus myosuroides; [6]): 4 (Herbicidal ratio of 70% or more and less than 90%); N: herbicidal effect on Amaranthus retroflexus (Amaranthus retroflexus; [6]): 5 (Herbicidal ratio of 90% or more (almost completely withered)); L: herbicidal effect on Apera spica-venti. (Apera spica-venti.; [6]): 4 (Herbicidal ratio of 70% or more and less than 90%); I: herbicidal effect on Avena fatua (Avena fatua; [6]): 3 (Herbicidal ratio of 40% or more and less than 70%); O: herbicidal effect on Chenopodium album (Chenopodium album; [6]): 5 (Herbicidal ratio of 90% or more (almost completely withered)); F: herbicidal effect on Digitaria ciliaris (Digitaria ciliaris; [6]): 5 (Herbicidal ratio of 90% or more (almost completely withered)); H: herbicidal effect on Echinochloa crus-galli var. crus-galli [3, 6]: 5 (Herbicidal ratio of 90% or more (almost completely withered)); Q: herbicidal effect on Galium spurium (Galium spurium; [6]): 4 (Herbicidal ratio of 70% or more and less than 90%); K: herbicidal effect on Lolium multiflorum Lam. (Lolium multiflorum Lam.; [6]): 3 (Herbicidal ratio of 40% or more and less than 70%); G: herbicidal effect on Setaria viridis (Setaria viridis; [6]): 5 (Herbicidal ratio of 90% or more (almost completely withered)); P: herbicidal effect on Stellaria media (Stellaria media; [6]): 5 (Herbicidal ratio of 90% or more (almost completely withered)); R: herbicidal effect on Veronica persica (Veronica persica; [6]): 5 (Herbicidal ratio of 90% or more (almost completely withered)); f: effect on crop, Beta vulgaris ssp. vulgaris [4, 6]: 5 (Herbicidal ratio of 90% or more (almost completely withered)); g: effect on crop, Brassica campestris L. (Brassica campestris L.; [6]): 4 (Herbicidal ratio of 70% or more and less than 90%); d: effect on crop, Glycine max (Glycine max; [6]): 1 (Herbicidal ratio of 5% or more and less than 20%); e: effect on crop, Triticum aestivum (Triticum aestivum; [6]): 3 (Herbicidal ratio of 40% or more and less than 70%); c: effect on crop, Zea mays (Zea mays; [6]): 0 (Herbicidal ratio of 5% or less (almost no effect)); b: effect on crop, directly sowed Oryza sativa [5, 6]: 4 (Herbicidal ratio of 70% or more and less than 90%)
Cn1nnnc1NC(=O)c1ccc(C(F)(F)F)n2c(C3=NOC(C)(C)C3)nnc12 [2-028]	5 (Herbicidal ratio of 90% or more (almost completely withered))	5 (Herbicidal ratio of 90% or more (almost completely withered))	5 (Herbicidal ratio of 90% or more (almost completely withered))	5 (Herbicidal ratio of 90% or more (almost completely withered))	5 (Herbicidal ratio of 90% or more (almost completely withered))	4 (Herbicidal ratio of 70% or more and less than 90%)	5 (Herbicidal ratio of 90% or more (almost completely withered))	5 (Herbicidal ratio of 90% or more (almost completely withered))	4 (Herbicidal ratio of 70% or more and less than 90%)	5 (Herbicidal ratio of 90% or more (almost completely withered))	5 (Herbicidal ratio of 90% or more (almost completely withered))	5 (Herbicidal ratio of 90% or more (almost completely withered))	4 (Herbicidal ratio of 70% or more and less than 90%)	4 (Herbicidal ratio of 70% or more and less than 90%)	5 (Herbicidal ratio of 90% or more (almost completely withered))	5 (Herbicidal ratio of 90% or more (almost completely withered))	5 (Herbicidal ratio of 90% or more (almost completely withered))	5 (Herbicidal ratio of 90% or more (almost completely withered))	5 (Herbicidal ratio of 90% or more (almost completely withered))	3 (Herbicidal ratio of 40% or more and less than 70%)	e (Triticum aestivum) effect on crop grade (Triticum aestivum): 4 (Herbicidal ratio of 70% or more and less than 90%); b (Zea mays) effect on crop grade (Zea mays): 5 (Herbicidal ratio of 90% or more (almost completely withered)); d (directly sowed Oryza sativa) effect on crop grade [5]: 4 (Herbicidal ratio of 70% or more and less than 90%)
CSCc1nnc2c(C(=O)Nc3nnnn3C)ccc(C(F)(F)F)n12 [2-029]	5 (Herbicidal ratio of 90% or more (almost completely withered))	5 (Herbicidal ratio of 90% or more (almost completely withered))	5 (Herbicidal ratio of 90% or more (almost completely withered))	5 (Herbicidal ratio of 90% or more (almost completely withered))	5 (Herbicidal ratio of 90% or more (almost completely withered))	5 (Herbicidal ratio of 90% or more (almost completely withered))	5 (Herbicidal ratio of 90% or more (almost completely withered))	5 (Herbicidal ratio of 90% or more (almost completely withered))	5 (Herbicidal ratio of 90% or more (almost completely withered))	5 (Herbicidal ratio of 90% or more (almost completely withered))	5 (Herbicidal ratio of 90% or more (almost completely withered))	5 (Herbicidal ratio of 90% or more (almost completely withered))	4 (Herbicidal ratio of 70% or more and less than 90%)	5 (Herbicidal ratio of 90% or more (almost completely withered))	5 (Herbicidal ratio of 90% or more (almost completely withered))	5 (Herbicidal ratio of 90% or more (almost completely withered))	5 (Herbicidal ratio of 90% or more (almost completely withered))	5 (Herbicidal ratio of 90% or more (almost completely withered))	5 (Herbicidal ratio of 90% or more (almost completely withered))	4 (Herbicidal ratio of 70% or more and less than 90%)	e (Triticum aestivum) effect on crop grade (Triticum aestivum): 5 (Herbicidal ratio of 90% or more (almost completely withered)); b (Zea mays) effect on crop grade (Zea mays): 5 (Herbicidal ratio of 90% or more (almost completely withered)); d (directly sowed Oryza sativa) effect on crop grade [5]: 5 (Herbicidal ratio of 90% or more (almost completely withered))
